In article PMC12655527, “An Investigational Study on the Role of ADME Agents’ Genetic Variation on DD217 Pharmacokinetics and Safety Profile” (Pharmaceuticals, 2025):
Read-outs that look alike come from different tables or passages of the source.

Test: Pharmacokinetic parameters (Tmax, AUClast, Cmax) of DD217 in phase II trial patients
Format: in vivo, human (patients undergoing knee replacement surgery)
Conditions: human, plasma
From the text: The design, eligibility criteria, and outcomes of the phase II clinical trial evaluating the safety and tolerability of DD217 (NCT05189002, ClinicalTrials.gov) have been described previously. Briefly, this was a multicenter, double-blind, randomized, prospective phase II study designed to determine the optimal dosing regimen and to assess the safety and efficacy of DD217 for the prevention of venous thromboembolism (VTE) in patients undergoing knee replacement surgery. Patients were randomized into one of three groups: two groups received oral DD217 at doses of 40 mg or 60 mg once daily, starting on the morning of the first postoperative day, and one group received the active comparator, dalteparin sodium. The treatment duration was 14 days.
In total, data from 52 patients who underwent knee replacement surgery were included in the analysis. Of these, 34 patients received DD217 at daily doses of 40 mg (n = 16) or 60 mg (n = 18), and 18 patients received dalteparin sodium.
To characterize the pharmacokinetic profile of DD217 in our study, three parameters were assessed: Cmax, Tmax, and AUClast.

## CC(=N)N(C)c1ccc(C(=O)Nc2ccc(C)cc2C(=O)Nc2ccc(Cl)cn2)cc1.Cl [DD217, N-(5-chloropyridin-2-yl)-5-methyl-2-[4-(N-methylacetimidamido)benzamido]benzamide hydrochloride]
im, 40 mg, CYP2C9 *1/*2, *1/*3, IM (n = 6), mean ± SD, read-out: AUClast
  AUC(0-t): 33.9 ± 36.2 ng·h/mL
im, 40 mg, CYP2C9 *1/*2, *1/*3, IM (n = 6), mean ± SD, read-out: Cmax
  Cmax: 3.72 ± 5.61 ng/mL
im, 40 mg, CYP2C9 *1/*2, *1/*3, IM (n = 6), mean ± SD, read-out: Tmax
  Tmax: 9 ± 8.17 h
im, 40 mg, CYP2C19 *1/*2, IM (n = 1), read-out: AUClast
  AUC(0-t): 48.5 ng·h/mL
im, 40 mg, CYP2C19 *1/*2, IM (n = 1), read-out: Cmax
  Cmax: 3.12 ng/mL
im, 40 mg, CYP2C19 *1/*2, IM (n = 1), read-out: Tmax
  Tmax: 4 h
im, 40 mg, CYP3A *1/*22, *1/*3, IM (n = 4), mean ± SD, read-out: AUClast
  AUC(0-t): 49 ± 48.7 ng·h/mL
im, 40 mg, CYP3A *1/*22, *1/*3, IM (n = 4), mean ± SD, read-out: Cmax
  Cmax: 6.63 ± 8.63 ng/mL
im, 40 mg, CYP3A *1/*22, *1/*3, IM (n = 4), mean ± SD, read-out: Tmax
  Tmax: 6.25 ± 3.5 h
im, 60 mg, CYP2C9 *1/*2, *1/*3, IM (n = 5), mean ± SD, read-out: AUClast
  AUC(0-t): 89.8 ± 89.3 ng·h/mL
im, 60 mg, CYP2C9 *1/*2, *1/*3, IM (n = 5), mean ± SD, read-out: Cmax
  Cmax: 9.24 ± 9.59 ng/mL
im, 60 mg, CYP2C9 *1/*2, *1/*3, IM (n = 5), mean ± SD, read-out: Tmax
  Tmax: 3.2 ± 2.17 h
im, 60 mg, CYP2C19 *1/*2, *2/*2, *2/*17, IM + PM (n = 4), mean ± SD, read-out: AUClast
  AUC(0-t): 32.3 ± 22.5 ng·h/mL
im, 60 mg, CYP2C19 *1/*2, *2/*2, *2/*17, IM + PM (n = 4), mean ± SD, read-out: Cmax
  Cmax: 3.64 ± 3.51 ng/mL
im, 60 mg, CYP2C19 *1/*2, *2/*2, *2/*17, IM + PM (n = 4), mean ± SD, read-out: Tmax
  Tmax: 9.5 ± 9.98 h
im, 60 mg, CYP3A *1/*3, IM (n = 2), mean ± SD, read-out: AUClast
  AUC(0-t): 186 ± 211 ng·h/mL
im, 60 mg, CYP3A *1/*3, IM (n = 2), mean ± SD, read-out: Cmax
  Cmax: 11.9 ± 12.7 ng/mL
im, 60 mg, CYP3A *1/*3, IM (n = 2), mean ± SD, read-out: Tmax
  Tmax: 3.5 ± 3.54 h
oral, 40 mg/day, ABCB1 rs1045642 T>C, C/C (n 5), read-out: AUClast (SD)
  AUC(0-t): 17.8 ng·h/mL
oral, 40 mg/day, ABCB1 rs1045642 T>C, C/C (n 5), read-out: Cmax (SD)
  Cmax: 2.42 ng/mL
oral, 40 mg/day, ABCB1 rs1045642 T>C, C/C (n 5), read-out: Tmax (SD)
  Tmax: 17.2 h
oral, 40 mg/day, ABCB1 rs1045642 T>C, T/C (n 7), read-out: AUClast (SD)
  AUC(0-t): 63.6 ng·h/mL
oral, 40 mg/day, ABCB1 rs1045642 T>C, T/C (n 7), read-out: Cmax (SD)
  Cmax: 8.03 ng/mL
oral, 40 mg/day, ABCB1 rs1045642 T>C, T/C (n 7), read-out: Tmax (SD)
  Tmax: 6 h
oral, 40 mg/day, ABCB1 rs1045642 T>C, T/T (n 4), read-out: AUClast (SD)
  AUC(0-t): 35.5 ng·h/mL
oral, 40 mg/day, ABCB1 rs1045642 T>C, T/T (n 4), read-out: Cmax (SD)
  Cmax: 4.63 ng/mL
oral, 40 mg/day, ABCB1 rs1045642 T>C, T/T (n 4), read-out: Tmax (SD)
  Tmax: 9.5 h
oral, 40 mg/day, ABCB1 rs1128503 T>C, C/C (n 8), read-out: AUClast (SD)
  AUC(0-t): 34.6 ng·h/mL
oral, 40 mg/day, ABCB1 rs1128503 T>C, C/C (n 8), read-out: Cmax (SD)
  Cmax: 4.84 ng/mL
oral, 40 mg/day, ABCB1 rs1128503 T>C, C/C (n 8), read-out: Tmax (SD)
  Tmax: 12.9 h
oral, 40 mg/day, ABCB1 rs1128503 T>C, C/T (n 6), read-out: AUClast (SD)
  AUC(0-t): 46.4 ng·h/mL
oral, 40 mg/day, ABCB1 rs1128503 T>C, C/T (n 6), read-out: Cmax (SD)
  Cmax: 5.24 ng/mL
oral, 40 mg/day, ABCB1 rs1128503 T>C, C/T (n 6), read-out: Tmax (SD)
  Tmax: 9.5 h
oral, 40 mg/day, ABCB1 rs1128503 T>C, T/T (n 2), read-out: AUClast (SD)
  AUC(0-t): 60.9 ng·h/mL
oral, 40 mg/day, ABCB1 rs1128503 T>C, T/T (n 2), read-out: Cmax (SD)
  Cmax: 8.35 ng/mL
oral, 40 mg/day, ABCB1 rs1128503 T>C, T/T (n 2), read-out: Tmax (SD)
  Tmax: 3 h
oral, 40 mg/day, ABCB1 rs2032582 G>T, G/G (n 8), read-out: AUClast (SD)
  AUC(0-t): 34.6 ng·h/mL
oral, 40 mg/day, ABCB1 rs2032582 G>T, G/G (n 8), read-out: Cmax (SD)
  Cmax: 4.84 ng/mL
oral, 40 mg/day, ABCB1 rs2032582 G>T, G/G (n 8), read-out: Tmax (SD)
  Tmax: 12.9 h
oral, 40 mg/day, ABCB1 rs2032582 G>T, G/T (n 6), read-out: AUClast (SD)
  AUC(0-t): 46.4 ng·h/mL
oral, 40 mg/day, ABCB1 rs2032582 G>T, G/T (n 6), read-out: Cmax (SD)
  Cmax: 5.24 ng/mL
oral, 40 mg/day, ABCB1 rs2032582 G>T, G/T (n 6), read-out: Tmax (SD)
  Tmax: 9.5 h
oral, 40 mg/day, ABCB1 rs2032582 G>T, T/T (n 2), read-out: AUClast (SD)
  AUC(0-t): 60.9 ng·h/mL
oral, 40 mg/day, ABCB1 rs2032582 G>T, T/T (n 2), read-out: Cmax (SD)
  Cmax: 8.35 ng/mL
oral, 40 mg/day, ABCB1 rs2032582 G>T, T/T (n 2), read-out: Tmax (SD)
  Tmax: 3 h
oral, 40 mg/day, ABCB1 rs4148738 C>T, C/C (n 2), read-out: AUClast (SD)
  AUC(0-t): 60.9 ng·h/mL
oral, 40 mg/day, ABCB1 rs4148738 C>T, C/C (n 2), read-out: Cmax (SD)
  Cmax: 8.35 ng/mL
oral, 40 mg/day, ABCB1 rs4148738 C>T, C/C (n 2), read-out: Tmax (SD)
  Tmax: 3 h
oral, 40 mg/day, ABCB1 rs4148738 C>T, T/C (n 6), read-out: AUClast (SD)
  AUC(0-t): 46.4 ng·h/mL
oral, 40 mg/day, ABCB1 rs4148738 C>T, T/C (n 6), read-out: Cmax (SD)
  Cmax: 5.24 ng/mL
oral, 40 mg/day, ABCB1 rs4148738 C>T, T/C (n 6), read-out: Tmax (SD)
  Tmax: 9.5 h
oral, 40 mg/day, ABCB1 rs4148738 C>T, T/T (n 8), read-out: AUClast (SD)
  AUC(0-t): 34.6 ng·h/mL
oral, 40 mg/day, ABCB1 rs4148738 C>T, T/T (n 8), read-out: Cmax (SD)
  Cmax: 4.84 ng/mL
oral, 40 mg/day, ABCB1 rs4148738 C>T, T/T (n 8), read-out: Tmax (SD)
  Tmax: 12.9 h
oral, 40 mg, CYP2C8 rs10509681 T/C (n 3), read-out: AUClast (SD)
  AUC(0-t): 46.9 ng·h/mL
oral, 40 mg, CYP2C8 rs10509681 T/C (n 3), read-out: Cmax (SD)
  Cmax: 7.06 ng/mL
oral, 40 mg, CYP2C8 rs10509681 T/C (n 3), read-out: Tmax (h, SD)
  Tmax: 16.7 h
oral, 40 mg, CYP2C8 rs10509681 T/T (n 13), read-out: AUClast (SD)
  AUC(0-t): 41.2 ng·h/mL
oral, 40 mg, CYP2C8 rs10509681 T/T (n 13), read-out: Cmax (SD)
  Cmax: 5.05 ng/mL
oral, 40 mg, CYP2C8 rs10509681 T/T (n 13), read-out: Tmax (h, SD)
  Tmax: 8.92 h
oral, 40 mg, CYP2C8 rs11572080 C/C (n 13), read-out: AUClast (SD)
  AUC(0-t): 41.2 ng·h/mL
oral, 40 mg, CYP2C8 rs11572080 C/C (n 13), read-out: Cmax (SD)
  Cmax: 5.05 ng/mL
oral, 40 mg, CYP2C8 rs11572080 C/C (n 13), read-out: Tmax (h, SD)
  Tmax: 8.92 h
oral, 40 mg, CYP2C8 rs11572080 C/T (n 3), read-out: AUClast (SD)
  AUC(0-t): 46.9 ng·h/mL
oral, 40 mg, CYP2C8 rs11572080 C/T (n 3), read-out: Cmax (SD)
  Cmax: 7.06 ng/mL
oral, 40 mg, CYP2C8 rs11572080 C/T (n 3), read-out: Tmax (h, SD)
  Tmax: 16.7 h
oral, 40 mg, CYP2C9 *1/*1, NM (n = 8), mean ± SD, read-out: AUClast
  AUC(0-t): 54.5 ± 49.4 ng·h/mL
oral, 40 mg, CYP2C9 *1/*1, NM (n = 8), mean ± SD, read-out: Cmax
  Cmax: 7.28 ± 8.71 ng/mL
oral, 40 mg, CYP2C9 *1/*1, NM (n = 8), mean ± SD, read-out: Tmax
  Tmax: 8 ± 7.15 h
oral, 40 mg, CYP2C9 *2/*3, *3/*3, PM (n = 2), mean ± SD, read-out: AUClast
  AUC(0-t): 18.6 ± 22.5 ng·h/mL
oral, 40 mg, CYP2C9 *2/*3, *3/*3, PM (n = 2), mean ± SD, read-out: Cmax
  Cmax: 3.11 ± 3.75 ng/mL
oral, 40 mg, CYP2C9 *2/*3, *3/*3, PM (n = 2), read-out: Tmax
  Tmax: 24 h
oral, 40 mg, CYP2C19 *1/*1, NM (n = 6), mean ± SD, read-out: AUClast
  AUC(0-t): 33.1 ± 48.1 ng·h/mL
oral, 40 mg, CYP2C19 *1/*1, NM (n = 6), mean ± SD, read-out: Cmax
  Cmax: 5.25 ± 8.82 ng/mL
oral, 40 mg, CYP2C19 *1/*1, NM (n = 6), mean ± SD, read-out: Tmax
  Tmax: 15.5 ± 9.95 h
